Experimental data as given in PubChem BioAssay AID2060895 (Molecular Pharmacology Branch, DTP, NCI, 2025).

System: PDC 899932-113-R3-J6 complex spheroid viability
Test: Anticancer human tumor 899932-113-R3-J6-PDC patient-derived melanoma cell line growth inhibition [RAS]
Details: for IC50: curve of first compound; for viability, T/C: stronger effect = lower value
How it was run: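 Agents were tested in combination matrices in half-log decrements from a top concentration at or near clinical Cmax (10 microM if undetermined). Targets were multi-cell spheroids of tumour lines plus HUVEC and MSC stromal cells.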
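For viability, T/C in this document: spheroids exposed to agents for seven days before readout; 100% = DMSO vehicle control wells.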

C=CC(=O)N1CCN(c2nc(OCC3CCCN3C)nc3c(F)c(-c4nc(N)cc(C)c4C(F)(F)F)c(Cl)cc23)C(C)C1 (centres undefined) + CCn1c(-c2cccnc2C(C)OC)c2c3cc(ccc31)N1CCOC(CC(NC(=O)C(C(C)C)N(C)C(=O)C3(F)CCN(C(=O)C#CC(C)(C)N(C)C)CC3)C(=O)N3CCCC(N3)C(=O)OCC(C)(C)C2)C1
IC50 (second compound 0.000949 µM): > 1000 nM | IC50 (second compound 0.003 µM): > 1000 nM | IC50 (second compound 0.00949 µM): > 1000 nM | IC50 (second compound 0.03 µM): > 1000 nM | IC50 (second compound 0.0949 µM): > 1000 nM | IC50 (second compound 0.3 µM): > 1000 nM | viability, T/C (second compound 0.000949 µM, first compound 0.00316 µM): 113% | viability, T/C (second compound 0.000949 µM, first compound 0.01 µM): 101% | viability, T/C (second compound 0.000949 µM, first compound 0.0316 µM): 118% | viability, T/C (second compound 0.000949 µM, first compound 0.1 µM): 106% | viability, T/C (second compound 0.000949 µM, first compound 0.316 µM): 108% | viability, T/C (second compound 0.000949 µM, first compound 1 µM): 105% | viability, T/C (second compound 0.003 µM, first compound 0.00316 µM): 107% | viability, T/C (second compound 0.003 µM, first compound 0.01 µM): 118% | viability, T/C (second compound 0.003 µM, first compound 0.0316 µM): 105% | viability, T/C (second compound 0.003 µM, first compound 0.1 µM): 108% | viability, T/C (second compound 0.003 µM, first compound 0.316 µM): 108% | viability, T/C (second compound 0.003 µM, first compound 1 µM): 104% | viability, T/C (second compound 0.00949 µM, first compound 0.00316 µM): 110% | viability, T/C (second compound 0.00949 µM, first compound 0.01 µM): 107% | viability, T/C (second compound 0.00949 µM, first compound 0.0316 µM): 102% | viability, T/C (second compound 0.00949 µM, first compound 0.1 µM): 107% | viability, T/C (second compound 0.00949 µM, first compound 0.316 µM): 112% | viability, T/C (second compound 0.00949 µM, first compound 1 µM): 106% | viability, T/C (second compound 0.03 µM, first compound 0.00316 µM): 106% | viability, T/C (second compound 0.03 µM, first compound 0.01 µM): 97% | viability, T/C (second compound 0.03 µM, first compound 0.0316 µM): 110% | viability, T/C (second compound 0.03 µM, first compound 0.1 µM): 110% | viability, T/C (second compound 0.03 µM, first compound 0.316 µM): 114% | viability, T/C (second compound 0.03 µM, first compound 1 µM): 104% | viability, T/C (second compound 0.0949 µM, first compound 0.00316 µM): 101% | viability, T/C (second compound 0.0949 µM, first compound 0.01 µM): 102% | viability, T/C (second compound 0.0949 µM, first compound 0.0316 µM): 96% | viability, T/C (second compound 0.0949 µM, first compound 0.1 µM): 101% | viability, T/C (second compound 0.0949 µM, first compound 0.316 µM): 95.2% | viability, T/C (second compound 0.0949 µM, first compound 1 µM): 92.8% | viability, T/C (second compound 0.3 µM, first compound 0.00316 µM): 91.2% | viability, T/C (second compound 0.3 µM, first compound 0.01 µM): 87% | viability, T/C (second compound 0.3 µM, first compound 0.0316 µM): 92.1% | viability, T/C (second compound 0.3 µM, first compound 0.1 µM): 87.9% | viability, T/C (second compound 0.3 µM, first compound 0.316 µM): 84.9% | viability, T/C (second compound 0.3 µM, first compound 1 µM): 90.9%

CC1(C)CCC(Nc2ncc(C(F)(F)F)c(-c3c[nH]c4c(P(C)(C)=O)c(C#N)ccc34)n2)CN1 (centres undefined) + CCn1c(-c2cccnc2C(C)OC)c2c3cc(ccc31)N1CCOC(CC(NC(=O)C(C(C)C)N(C)C(=O)C3(F)CCN(C(=O)C#CC(C)(C)N(C)C)CC3)C(=O)N3CCCC(N3)C(=O)OCC(C)(C)C2)C1
IC50 (second compound 0.000949 µM): 25.9 nM | IC50 (second compound 0.003 µM): 20.1 nM | IC50 (second compound 0.00949 µM): 21.6 nM | IC50 (second compound 0.03 µM): 26.8 nM | IC50 (second compound 0.0949 µM): 22.5 nM | IC50 (second compound 0.3 µM): 18.8 nM | viability, T/C (second compound 0.000949 µM, first compound 0.000949 µM): 105% | viability, T/C (second compound 0.000949 µM, first compound 0.003 µM): 75.8% | viability, T/C (second compound 0.000949 µM, first compound 0.00949 µM): 62.9% | viability, T/C (second compound 0.000949 µM, first compound 0.03 µM): 52.4% | viability, T/C (second compound 0.000949 µM, first compound 0.0949 µM): 34% | viability, T/C (second compound 0.000949 µM, first compound 0.3 µM): 15.1% | viability, T/C (second compound 0.003 µM, first compound 0.000949 µM): 112% | viability, T/C (second compound 0.003 µM, first compound 0.003 µM): 78.6% | viability, T/C (second compound 0.003 µM, first compound 0.00949 µM): 61.3% | viability, T/C (second compound 0.003 µM, first compound 0.03 µM): 43.4% | viability, T/C (second compound 0.003 µM, first compound 0.0949 µM): 37.8% | viability, T/C (second compound 0.003 µM, first compound 0.3 µM): 15.5% | viability, T/C (second compound 0.00949 µM, first compound 0.000949 µM): 98.1% | viability, T/C (second compound 0.00949 µM, first compound 0.003 µM): 86.6% | viability, T/C (second compound 0.00949 µM, first compound 0.00949 µM): 61.9% | viability, T/C (second compound 0.00949 µM, first compound 0.03 µM): 41% | viability, T/C (second compound 0.00949 µM, first compound 0.0949 µM): 34.4% | viability, T/C (second compound 0.00949 µM, first compound 0.3 µM): 15% | viability, T/C (second compound 0.03 µM, first compound 0.000949 µM): 104% | viability, T/C (second compound 0.03 µM, first compound 0.003 µM): 88.2% | viability, T/C (second compound 0.03 µM, first compound 0.00949 µM): 64.7% | viability, T/C (second compound 0.03 µM, first compound 0.03 µM): 46.5% | viability, T/C (second compound 0.03 µM, first compound 0.0949 µM): 36.2% | viability, T/C (second compound 0.03 µM, first compound 0.3 µM): 20.2% | viability, T/C (second compound 0.0949 µM, first compound 0.000949 µM): 100% | viability, T/C (second compound 0.0949 µM, first compound 0.003 µM): 75.6% | viability, T/C (second compound 0.0949 µM, first compound 0.00949 µM): 59.8% | viability, T/C (second compound 0.0949 µM, first compound 0.03 µM): 47.4% | viability, T/C (second compound 0.0949 µM, first compound 0.0949 µM): 35.6% | viability, T/C (second compound 0.0949 µM, first compound 0.3 µM): 20.6% | viability, T/C (second compound 0.3 µM, first compound 0.000949 µM): 79.3% | viability, T/C (second compound 0.3 µM, first compound 0.003 µM): 71.8% | viability, T/C (second compound 0.3 µM, first compound 0.00949 µM): 57.1% | viability, T/C (second compound 0.3 µM, first compound 0.03 µM): 43.5% | viability, T/C (second compound 0.3 µM, first compound 0.0949 µM): 37.4% | viability, T/C (second compound 0.3 µM, first compound 0.3 µM): 28.4%
